Assay results: patent publication US20040034082A1, “Utilization of pyrazoline derivatives in the preparation of a medicament for the prevention and/or treatment of proliferative cell diseases” (priority 2001, published 2004)

| Compound | melting point [°C] |
| --- | --- |
| Cc1ccc(C2CC(C(=O)O)=NN2c2ccc(S(N)(=O)=O)cc2)cc1 (stereo not shown) [Example 34] | 172 to 176 |
| NS(=O)(=O)c1ccc(N2N=C(C(=O)O)CC2c2ccccc2)cc1 (stereo not shown) [Example 35] | 157 to 164 |
| Cc1ccc(C2CC(C(=O)O)=NN2c2ccc(S(C)(=O)=O)cc2)cc1 (stereo not shown) [Example 36] | 202 to 205 |
| COC(=O)C1=NN(c2ccc(S(N)(=O)=O)cc2)C(c2ccc(C)cc2)C1 (stereo not shown) [Example 37] | 192 to 197 |
| COC(=O)C1=NN(c2ccc(S(N)(=O)=O)cc2)C(c2ccccc2)C1 (stereo not shown) [Example 38] | 84 to 90 |
| COC(=O)C1=NN(c2ccc(S(C)(=O)=O)cc2)C(c2ccc(C)cc2)C1 (stereo not shown) [Example 39] | 155 to 160 |
| NC(=O)C1=NN(c2ccc(S(N)(=O)=O)cc2)C(c2ccccc2)C1 (stereo not shown) [Example 40] | 200 to 205 |
| Cc1ccc(C2CC(C(N)=O)=NN2c2ccc(S(N)(=O)=O)cc2)cc1 (stereo not shown) [Example 41] | 210 to 215 |
| Cc1ccc(C2CC(C(N)=O)=NN2c2ccc(S(C)(=O)=O)cc2)cc1 (stereo not shown) [Example 42] | 128 to 132 |
| Cc1ccc(C2CC(C#N)=NN2c2ccc(S(C)(=O)=O)cc2)cc1 (stereo not shown) [Example 43] | 162 to 164 |
| Cc1ccc(C2CC(C(F)(F)F)=NN2c2ccc(S(N)(=O)=O)cc2)cc1C (stereo not shown) [Example 44] | 152 to 155 |
| COc1ccc(C2CC(C(F)(F)F)=NN2c2ccc(S(N)(=O)=O)cc2)cc1C (stereo not shown) [Example 45] | 170 to 175 |
| COc1ccc(C2CC(C(F)(F)F)=NN2c2ccc(S(N)(=O)=O)cc2)cc1F (stereo not shown) [Example 46] | 108 to 114 |
| COc1ccc(C2CC(C(F)(F)F)=NN2c2ccc(S(N)(=O)=O)cc2)c(F)c1 (stereo not shown) [Example 47] | 157 to 159 |
| COc1ccc(C2CC(C(F)(F)F)=NN2c2ccc(S(N)(=O)=O)cc2)c(OC)c1 (stereo not shown) [Example 48] | 121 to 126 |
| COc1cc(F)ccc1C1CC(C(F)(F)F)=NN1c1ccc(S(N)(=O)=O)cc1 (stereo not shown) [Example 49] | 179 to 182 |
| Cc1ccc(C2CC(C(F)F)=NN2c2ccc(S(N)(=O)=O)cc2)c(C)c1 (stereo not shown) [Example 50] | 181 to 183 |
| NS(=O)(=O)c1ccc(N2N=C(C(F)(F)F)CC2c2ccc(F)c(F)c2F)cc1 (stereo not shown) [Example 51] | 159 to 161 |
| NS(=O)(=O)c1ccc(N2N=C(C(F)(F)F)CC2c2ccc(F)cc2Cl)cc1 (stereo not shown) [Example 52] | 167 to 169 |
| NS(=O)(=O)c1ccc(N2N=C(C(F)(F)F)CC2c2ccc(C(F)(F)F)cc2F)cc1 (stereo not shown) [Example 53] | 170 to 173 |
| NS(=O)(=O)c1ccc(N2N=C(C(F)(F)F)CC2c2ccc(C(F)(F)F)cc2C(F)(F)F)cc1 (stereo not shown) [Example 54] | 212 to 214 |
| Cc1c(F)cccc1C1CC(C(F)(F)F)=NN1c1ccc(S(N)(=O)=O)cc1 (stereo not shown) [Example 55] | 193 to 195 |
| COc1ccc(C2CC(C(F)(F)F)=NN2c2ccc(S(N)(=O)=O)cc2)c(C)c1 (stereo not shown) [Example 56] | 148 to 150 |
| NS(=O)(=O)c1ccc(N2N=C(C(F)F)CC2c2ccc(F)cc2F)cc1 (stereo not shown) [Example 57] | 157 to 160 |
| NS(=O)(=O)c1ccc(N2N=C(C(F)(F)F)CC2c2ccc(F)cc2C(F)(F)F)cc1 (stereo not shown) [Example 58] | 174 to 177 |
| NS(=O)(=O)c1ccc(N2N=C(C(F)(F)F)CC2c2ccccc2Cl)cc1 (stereo not shown) [Example 60] | 157 to 159 |

More lines, now with the values ahead:

| melting point [°C] | Compound |
| --- | --- |
| 180 to 185 | NS(=O)(=O)c1ccc(N2N=C(C(F)(F)F)CC2c2ccc(Cl)cc2F)cc1 (stereo not shown) [Example 61] |
| 154 to 160 | Cc1cc(F)ccc1C1CC(C(F)(F)F)=NN1c1ccc(S(N)(=O)=O)cc1 (stereo not shown) [Example 62] |
| 166 to 167 | Cc1ccc(C2CC(C(F)(F)F)=NN2c2ccc(S(N)(=O)=O)cc2)c(F)c1 (stereo not shown) [Example 63] |
| 117 to 121 | CS(=O)(=O)c1ccc(C2CC(C(F)(F)F)=NN2c2ccc(Cl)cc2)cc1 (stereo not shown) [Example 65] |
| 114 to 115 | CS(=O)(=O)c1ccc(C2CC(C(F)(F)F)=NN2c2ccccc2)cc1 (stereo not shown) [Example 66] |
| 98 to 99 | CS(=O)(=O)c1ccc(C2CC(C(F)(F)F)=NN2c2ccccc2F)cc1 (stereo not shown) [Example 67] |
| 104 to 108 | Cc1cc(Cl)ccc1N1N=C(C(F)(F)F)CC1c1ccc(S(C)(=O)=O)cc1 (stereo not shown) [Example 68] |
| 116 to 117 | CS(=O)(=O)c1ccc(C2CC(C(F)(F)F)=NN2c2cccc(F)c2)cc1 (stereo not shown) [Example 69] |
| 114 to 116 | Cc1cccc(N2N=C(C(F)(F)F)CC2c2ccc(S(C)(=O)=O)cc2)c1 (stereo not shown) [Example 70] |
| 132 to 133 | Cc1ccc(N2N=C(C(F)(F)F)CC2c2ccc(S(C)(=O)=O)cc2)c(C)c1 (stereo not shown) [Example 71] |
| 103 to 106 | CS(=O)(=O)c1ccc(C2CC(C(F)(F)F)=NN2c2ccc(Cl)cc2Cl)cc1 (stereo not shown) [Example 74] |
| 138 to 140 | NS(=O)(=O)c1ccc(C2CC(C(F)(F)F)=NN2c2ccc(F)cc2)cc1 (stereo not shown) [Example 76] |
| 132 to 135 | CC1=NN(c2ccccc2)C(c2ccc(S(C)(=O)=O)cc2)C1 (stereo not shown) [Example 77] |
| 155 to 160 | CS(=O)(=O)c1ccc(C2CC=NN2c2ccc(F)cc2)cc1 (stereo not shown) [Example 78] |
